Test results from ChEMBL document CHEMBL1201862, “PubChem BioAssay data set” (2004).
Calls of active or inactive are those of the source. For most assays here, no stated cut-off is given here; in the data, actives have a measured EC50 and inactives only a lower limit.

Key:
[1] = inhibitors of intracellular T. cruzi replication, confirmation, NIH3T3 host cells, beta-gal luminescence (AID 2044); type: functional, cell-based;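 further: intracellular parasites grown in NIH/3T3 mouse fibroblasts as host cells; luminescent beta-galactosidase reporter signal from transgenic T. cruzi replicating inside host cells; inhibitors lower the luminescence signal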
[2] = cytotoxicity toward NIH3T3 fibroblasts, dose response, counter-screen, cell-based, ATP luminescence, mouse fibroblasts (AID 2010); type: functional;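 further: cells exposed to compound for about 90 hours before reading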
[3] = inhibitors of firefly luciferase expression or activity, dose response, H4 neuroglioma cells, luminescence (AID 1990); type: functional, cell-based
[4] = Luminescence Cell-Based Dose Response HTS to Identify Inhibitors of 5'UTR Stem-Loop Driven Prion Protein mRNA Translation in H4 Neuroglioblastoma Cells. [Related pubchem assays: 1827 (Project Summary), 1813 (Primary HTS)]; type: functional
[5] = inhibitors of SNCA 5'UTR-driven reporter translation, confirmation, H4 neuroglioma cells, luminescence (AID 1988); type: functional, cell-based
[6] = target: Cytochrome P450 3A4 (Homo sapiens, UniProt P08684);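 further: CYP3A4 tested as one member of a cytochrome P450 panel screen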
[7] = target: T1, Corticotropin-releasing factor receptor 2/Corticotropin-releasing factor-binding protein (Homo sapiens, UniProt P24387+Q13324); assay: activators of CRF receptor 2 with binding protein – uHTS hits, confirmation (AID 602473); type: functional; settings: read-out: EC50_Mean
T1 sequence (Q13324 whole entry): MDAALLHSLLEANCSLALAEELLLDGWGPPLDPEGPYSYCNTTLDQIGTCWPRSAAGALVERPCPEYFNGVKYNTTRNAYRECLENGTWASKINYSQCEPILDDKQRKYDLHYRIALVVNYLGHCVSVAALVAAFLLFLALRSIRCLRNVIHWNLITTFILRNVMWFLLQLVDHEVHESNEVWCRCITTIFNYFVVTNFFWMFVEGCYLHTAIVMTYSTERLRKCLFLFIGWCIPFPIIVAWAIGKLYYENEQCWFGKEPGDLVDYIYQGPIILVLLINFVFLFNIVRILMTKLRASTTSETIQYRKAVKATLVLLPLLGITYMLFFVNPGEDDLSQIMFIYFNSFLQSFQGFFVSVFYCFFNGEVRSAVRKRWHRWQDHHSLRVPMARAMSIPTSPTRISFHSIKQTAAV
T1 sequence (P24387 whole entry): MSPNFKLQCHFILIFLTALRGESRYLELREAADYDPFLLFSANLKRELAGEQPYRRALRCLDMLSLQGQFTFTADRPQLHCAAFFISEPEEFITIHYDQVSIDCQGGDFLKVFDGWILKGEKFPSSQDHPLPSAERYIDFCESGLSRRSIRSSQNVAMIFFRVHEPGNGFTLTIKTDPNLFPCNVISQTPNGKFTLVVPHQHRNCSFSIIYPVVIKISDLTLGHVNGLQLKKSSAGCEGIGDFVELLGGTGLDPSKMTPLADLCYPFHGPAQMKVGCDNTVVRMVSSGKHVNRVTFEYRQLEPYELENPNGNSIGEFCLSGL

[8] = test system: Streptococcus sp. 'group A'; assay: growth inhibition of control SK(-) GAS strain, dose response, counter-screen for streptokinase expression inhibitor project, luminescence, kanamycin, BacTiterGlo, confirmation (AID 1900); type: functional, organism-based
[9] = target: T2, Streptokinase A (Streptococcus pyogenes serotype M1, UniProt P10520); assay: S. pyogenes streptokinase expression inhibitors, potency, dose response, plasminogen activation absorbance, OD405 (AID 1914); type: functional, Streptococcus pyogenes M1 GAS;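 further: secreted streptokinase activity via plasminogen activation per viability signal from cell pellet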
T2 sequence (P10520 whole entry): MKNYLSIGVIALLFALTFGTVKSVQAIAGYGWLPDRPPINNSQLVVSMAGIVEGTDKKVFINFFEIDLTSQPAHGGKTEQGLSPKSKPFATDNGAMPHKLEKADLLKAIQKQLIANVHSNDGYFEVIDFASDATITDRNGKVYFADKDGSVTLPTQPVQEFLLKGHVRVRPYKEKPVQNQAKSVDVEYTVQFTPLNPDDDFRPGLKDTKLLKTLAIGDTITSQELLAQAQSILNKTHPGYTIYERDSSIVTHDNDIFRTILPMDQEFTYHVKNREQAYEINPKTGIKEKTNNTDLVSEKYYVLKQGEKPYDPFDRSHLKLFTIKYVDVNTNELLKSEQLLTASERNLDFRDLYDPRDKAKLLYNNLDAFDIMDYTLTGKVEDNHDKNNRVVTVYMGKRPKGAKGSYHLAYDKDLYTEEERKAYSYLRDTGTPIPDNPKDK

[10] = test system: Streptococcus; assay: Group A Streptococcus viability loss, dose response, counter-screen for streptokinase expression inhibitor project, luminescence, BacTiterGlo (AID 1915); type: functional, organism-based;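 further: potency for reduction of bacterial viability or growth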
[11] = Luminescence Cell-Based Dose Response HTS to Identify Activators of Luciferase Translation or Activity in H4 […] Cells. [Related pubchem assays: 1829 (Project Summary), 1814 (Primary HTS)]; type: functional

Sequence of Cytochrome P450 3A4 (P08684 whole entry): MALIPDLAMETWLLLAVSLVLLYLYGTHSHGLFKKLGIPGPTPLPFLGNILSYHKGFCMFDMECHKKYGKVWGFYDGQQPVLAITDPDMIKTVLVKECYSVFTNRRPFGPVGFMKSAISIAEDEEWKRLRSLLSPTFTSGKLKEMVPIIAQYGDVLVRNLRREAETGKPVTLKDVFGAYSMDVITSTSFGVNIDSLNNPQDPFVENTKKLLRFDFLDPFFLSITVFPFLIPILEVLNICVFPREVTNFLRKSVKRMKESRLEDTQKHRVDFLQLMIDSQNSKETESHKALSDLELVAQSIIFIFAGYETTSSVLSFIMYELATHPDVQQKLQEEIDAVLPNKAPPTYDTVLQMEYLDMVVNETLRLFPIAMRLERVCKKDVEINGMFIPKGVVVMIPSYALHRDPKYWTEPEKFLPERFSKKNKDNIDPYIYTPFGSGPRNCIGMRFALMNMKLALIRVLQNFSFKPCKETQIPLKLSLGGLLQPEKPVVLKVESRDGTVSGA

With Cc1nn(Cc2ccccc2)c(C)c1NC(=O)c1ccc([N+](=O)[O-])cc1[N+](=O)[O-] the EC50 [1] was 0.307 µM (active) and the EC50 [2] was > 60 µM (not active).
With Clc1ccc(-c2csc(Nc3cccnc3)n2)cc1 the EC50 [1] was 0.3 µM (active) and the EC50 [2] was > 60 µM (not active).
With CN(c1ccc(OCC(=O)Nc2nc(-c3ccccc3)cs2)cc1)S(=O)(=O)c1ccc(F)cc1 the EC50 [1] was 1.14 µM (active) and the EC50 [2] was > 60 µM (not active).
With OCCN1CCN(Cc2cccc(Oc3ccc(Cl)cc3)c2)CC1 the EC50 [1] was 3.92 µM (active) and the EC50 [2] was > 60 µM (not active).
For CCOc1ccc(NC(=S)N2CCc3cc(OC)c(OC)cc3C2COc2ccc3c(C)cc(=O)oc3c2)cc1 (stereo not given), the EC50 [3] was 30.4 µM (active), the EC50 [4] was 39.9 µM (active) and the EC50 [5] was > 120 µM (not active).
For Cc1cc(C)c2nc(N(CCCN(C)C)C(=O)c3ccc4c(c3)OCCO4)sc2c1, the EC50 [1] was 0.5 µM (active) and the EC50 [2] was 54.2 µM (active).
With CCCCN(Cc1cc2cc(OC)ccc2nc1O)S(=O)(=O)c1ccc(C)cc1 the EC50 [3] was 16 µM (active), the EC50 [4] was 11.3 µM (active) and the EC50 [5] was 11.1 µM (active).
In the case of O=C(c1cc(-c2ccncc2)nc2ccc(Cl)cc12)N1CCN(Cc2ccc3c(c2)OCO3)CC1, the EC50 [1] is reported as 0.152 µM (active) and the EC50 [2] is reported as > 60 µM (not active).
With O=C(Cn1c(C(=O)N2CCN(C3CCCCC3)CC2)cc2sccc21)c1ccccc1 the EC50 [1] was 2.53 µM (active) and the EC50 [2] was > 60 µM (not active).
With O=S(=O)(c1ccccc1)N1CCC2(CCN(c3ncccn3)CC2)CC1 the AC50 [6] was 31.6 µM (inconclusive).
In the case of CNC(=O)[C@@H]1O[C@@H](n2cnc3c(NCc4cccc(I)c4)ncnc32)[C@H](O)[C@@H]1O, the AC50 [6] is reported as 39.8 µM (inconclusive).
For Cc1ccc(NC(=N)Nc2nc(C)cc(C)n2)cc1, the EC50 [7] was 9.85 µM (active).
In the case of COc1ccc(CCn2c(C(C)C)nc3c(c(=O)c4ccccc4n3C)c2=O)cc1, the EC50 [7] is reported as 7.87 µM (active).
For Cc1ccc(C(=O)NCCSc2ccccc2)cc1S(=O)(=O)Nc1ccccc1, the EC50 [3] was 29.3 µM (active), the EC50 [4] was 23.3 µM (active) and the EC50 [5] was > 120 µM (not active).
In the case of CCOC(=O)c1cccc(NC(=O)/C=C/c2ccc3c(c2)OCO3)c1, the EC50 [3] is reported as 2.11 µM (active) and the EC50 [4] is reported as 0.361 µM (active).
With NC(=S)N/N=C\c1ccccc1OCc1ccccc1 the EC50 [1] was 0.623 µM (active) and the EC50 [2] was > 30 µM (not active).
In the case of COc1cccc(NC(=O)NCCCCc2ccccc2)c1, the EC50 [8] is reported as > 150 µM (not active), the EC50 [9] is reported as 106 µM (active) and the EC50 [10] is reported as > 150 µM (not active).
In the case of CCOc1ccc(CNC(=O)CCCn2nc(C)c3c(C)n(-c4ccc(C)cc4)nc3c2=O)cc1, the EC50 [3] is reported as 11.4 µM (active), the EC50 [4] is reported as > 120 µM (not active) and the EC50 [5] is reported as 32.2 µM (active).
With COc1ccc(-c2cc(C(F)(F)F)n3ncc(C(=O)N4CCc5ccccc5C4)c3n2)cc1 the EC50 [1] was 1.84 µM (active) and the EC50 [2] was > 60 µM (not active).
With O=C(Oc1ccccc1)N1CCC2(CC1)CN(c1ccncc1)C2 the AC50 [6] was 15.8 µM (inconclusive).
With C[C@@H]1O[C@@H]2C3=C(C(=O)[C@H]4O[C@@H]4[C@H]3O)C1[C@@H]1[C@@H](C)OC=C3[C@H](O)[C@H]4O[C@@H]4/C(=N\OCc4ccccc4)[C@@]321 the AC50 [6] was 6.31 µM (inconclusive).
For O=C(COC(=O)Cc1cn2ccsc2n1)Nc1nc2ccccc2s1, the EC50 [8] was 2.64 µM (active), the EC50 [9] was > 150 µM (not active) and the EC50 [10] was 6.72 µM (active).
For CCOC(=O)c1sc(NC(=O)c2ccc(S(=O)(=O)N(C)C)cc2)cc1C, the EC50 [1] was 2.21 µM (active) and the EC50 [2] was 8.88 µM (active).
In the case of CC(CCN(C)C)OC(=O)c1ccc(C(C)c2ccccc2)o1 (stereo not given), the EC50 [1] is reported as 0.845 µM (active) and the EC50 [2] is reported as > 60 µM (not active).
In the case of CCOC(=O)c1ccc(Nc2nc(C)nc3c2nnn3Cc2ccccc2)cc1, the EC50 [8] is reported as 13.4 µM (active), the EC50 [9] is reported as > 150 µM (not active) and the EC50 [10] is reported as > 150 µM (not active).
With C/C(CCN1CCCc2nc(C)c(C)cc21)=N\OC[C@@H](C)[C@H](OCc1ccccc1)C(C)C the AC50 [6] was 3.16 µM (inconclusive).
With Cc1cc(C(=O)NCC(=O)OC(C(=O)Nc2cc(C(F)(F)F)ccc2Cl)c2ccccc2)ccc1[N+](=O)[O-] (stereo not given) the EC50 [8] was > 150 µM (not active), the EC50 [9] was > 150 µM (not active) and the EC50 [10] was > 150 µM (not active).
In the case of Cc1ccc(Cn2nnc(C(=O)Nc3cccc(C)c3C)c2N)cc1, the EC50 [7] is reported as 7.98 µM (active).
With Cc1ccc(NNC(=O)C2CCC2)cc1C the EC50 [8] was > 150 µM (not active), the EC50 [9] was > 150 µM (not active) and the EC50 [10] was > 150 µM (not active).
With CCc1ccccc1NC(=S)NCCSc1ccc(Cl)cc1 the EC50 [9] was 30.5 µM (active).
For CC/C(C)=C1\SC(N2CCN(c3cccc(C(F)(F)F)c3)CC2)=NC1=O, the EC50 [3] was 19.9 µM (active), the EC50 [4] was > 120 µM (not active) and the EC50 [5] was > 120 µM (not active).
For O=C(CSc1nnnn1-c1cccc2ccccc12)Nc1ccc(N2CCOCC2)c(Cl)c1, the EC50 [1] was 0.457 µM (active) and the EC50 [2] was > 60 µM (inconclusive).
For O=c1c(-c2cc(F)cc(F)c2)nc2cncnc2n1Cc1ccc(F)cc1, the AC50 [6] was 10 µM (inconclusive).
For COc1ccc(Cl)cc1N=C(S)N(Cc1cccnc1)Cc1ccco1, the EC50 [1] was 0.722 µM (active) and the EC50 [2] was > 60 µM (not active).
In the case of CC1(C)CC(=O)C=C(Nc2ccc(Br)cn2)C1, the EC50 [3] is reported as > 120 µM (not active), the EC50 [4] is reported as > 120 µM (not active) and the EC50 [5] is reported as > 120 µM (not active).
With CO[C@H]1COC(=O)C/C=C\[C@H](C)COC(=O)[C@@H](OCc2ccccc2)/C=C\[C@@H]1C the AC50 [6] was 3.98 µM (inconclusive).
With Sc1nnc(-c2cc(-c3ccccc3)[nH]n2)n1/N=C/c1ccc(Cl)cc1 the EC50 [8] was 18 µM (active), the EC50 [9] was > 150 µM (not active) and the EC50 [10] was 21.4 µM (active).
With CCN(CC)c1ccc(NC(=O)c2ccc3c(c2)c(C)c(C)n3C)cc1 the EC50 [1] was 1.63 µM (active) and the EC50 [2] was > 60 µM (not active).
With COc1cc([C@@H]2c3cc4c(cc3[C@@H](O)[C@@H](CO)[C@@H]2CO)OCO4)cc(OC)c1O[Si](C)(C)C(C)(C)C the EC50 [3] was 15.9 µM (active), the EC50 [4] was 39.1 µM (active) and the EC50 [5] was 11.5 µM (active).
In the case of CCc1ccccc1N=C(S)NCCSc1ccc(Cl)cc1, the EC50 [8] is reported as 19.9 µM (active) and the EC50 [10] is reported as > 150 µM (not active).
In the case of Cc1nc(-c2ccccc2)sc1-c1ccnn1C, the EC50 [11] is reported as 0.367 µM (active).
In the case of O=C(C1CCCCC1)N1CCC(c2nc(O)c3nnn(Cc4c(F)cccc4Cl)c3n2)CC1, the EC50 [8] is reported as 4.19 µM (active), the EC50 [9] is reported as > 150 µM (not active) and the EC50 [10] is reported as 9.82 µM (active).
In the case of O[Si@](CCCN1CCCCC1)(c1ccc(F)cc1)C1CCCCC1, the AC50 [6] is reported as 3.98 µM (inconclusive).
With Nc1nc2n(n1)C(c1cccc(Br)c1)CC(c1ccc(F)cc1)N2 (stereo not given) the EC50 [7] was > 53 µM (inactive).
For C=CCNC(=S)N/N=C/c1ccc(-c2ccc(Cl)cc2Cl)o1, the EC50 [1] was 1.6 µM (active) and the EC50 [2] was > 60 µM (not active).
For Cc1c(C)n(C(=O)CN2CCC(C)CC2)c2ccccc12, the AC50 [6] was 17.8 µM (inconclusive).
For CCOC(=O)c1sc2nc(Cc3ccc(Cl)cc3)nc(S)c2c1C, the EC50 [8] was 4.03 µM (active) and the EC50 [10] was > 150 µM (not active).
With CCc1cccc(C)c1NC(=O)COC(=O)c1c2c(nc3ccccc13)/C(=C\c1cccs1)CCC2 the EC50 [1] was 2.22 µM (active) and the EC50 [2] was > 60 µM (not active).
